Assay results taken from PMC8748916, “Microbial enzymes induce colitis by reactivating triclosan in the mouse gastrointestinal tract” (Nature Communications, 2022).
Several values for one entry are separate records, joined by “and”; a condition that tells them apart may be missing. Equal values may be shown once. Read-outs that look alike come from different tables or passages of the source.

Key:
[1] = tested on: gut microbial β-glucuronidase (GUS) enzymes; assay: In vitro UDH (coupled) assay of TCS-G cleavage by a panel of 32 purified GUS enzymes; type: biochemical
[2] = tested on: DSS-induced colitis; assay: DSS-induced colitis in mice: TCS with or without GUSi (colon length, histology, FACS, qRT-PCR); type: in vivo; conditions: for cd45+(%) / f4/80+ (%) / gr-1+ (%) / Il-6 / Il-17 / Il-23 / Mcp1 / Tnf-α / HE / colon length (cm): DSS colitis mice, individual animals; for cd45+(%) / f4/80+ (%) / gr-1+ (%): FACS, Fig.5d; for Il-6 / Il-17 / Il-23 / Mcp1 / Tnf-α: gene expression, Fig.5e; for HE: histology score, Fig.5c; for colon length (cm): Fig.5b
Excerpt: After another 3 weeks, the mice were stimulated with 2% DSS (molecular weight = 36–50 KDa, MP Biomedicals, Solon, OH) in drinking water for 6 days to induce colitis. At end of the experiment, the mice were sacrificed for analysis.
Total RNA of colon tissues and MC38 cells were isolated using Trizol reagent (Ambion) according to the manufacturer’s instruction. RNA was reverse transcribed into cDNA using the High Capacity cDNA Reverse Transcription kit (Applied Biosystem) according to the manufacturer’s instructions. In all, 20 μL PCR reactions were prepared using the Maxima SYBR Green Master Mix (Thermo Fisher Scientific), and qPCR was carried out using a DNA Engine Opticon System (Bio-Rad Laboratories). Mouse-specific primer sequences (Thermo Fisher Scientific) used to detect inflammatory biomarkers are listed in Supplementary Table S6. Gapdh expression was used as an internal control.
Distal colon tissues were dissected, washed with cold PBS, and digested with Hank’s balanced salt solution (HBSS, Lonza) supplemented with 1 mM dithiothreitol (DTT) and 5 mM EDTA at 4 °C (colon […] cells). The released cells were stained with FITC-conjugated anti-mouse CD45 (BioLegend, Clone: 30-F11), PerCP/Cy5.5-conjugated anti-mouse F4/80 (BioLegend, Clone: BM8), and PE/Cy7-conjugated anti-mouse Ly-6G/Ly-6C (GR-1) (BioLegend, Clone: RB6-8C5) with a 1:100 diluted solution. Cells were stained with Zombie Violet^TM dye (Zombie Violet^TM Fixable Viability Kit; BioLegend) according to the manufacturer’s instructions to exclude dead cells. Gating and cell identification strategies are as follows: briefly, cell doublets and clumps were eliminated using FSC-A gating and debris was eliminated using FSC-A vs SSC-A. Dead cells were gated out using Zombie Violet™ dye. Flow cytometry data were acquired on a BD LSR Fortessa^TMcell analyzer (Becton Dickinson, Franklin Lakes, NJ) and analyzed using FlowJo software (FlowJo, LLC). Gating strategies used for the identification of major immune cell populations are shown in Supplementary Fig. S17.
The dissected colon tissues were fixed in 10% neutral buffered formalin (Thermo Fisher Scientific) for 48 h. After dehydration, the tissues were embedded in paraffin and sliced ([…]) by Rotary Microtome (Thermo Fisher Scientific). The slices were dewaxed in serial xylene and rehydrated through ethanol solutions, stained with hematoxylin and eosin (Sigma-Aldrich), and images were obtained under 200× magnification (BZ-X700 microscope, Keyence, Itasca, IL). The histologic scores were evaluated by a blinded observer according to the following measures: crypt architecture, degree of inflammatory cell infiltration, muscle thickening, goblet cell depletion, and crypt abscess. The histologic damage score is the sum of each individual score.

[3] = tested on: mouse fecal bacteria; assay: Conversion of TCS-G to TCS by anaerobically cultured mouse fecal bacteria in vitro; type: in vitro ADME; conditions: from TCS-G, replicates
[4] = tested on: C57BL/6 mice; assay: Effects of GUSi on gut inflammation in mice not stimulated with DSS; type: in vivo; set-up: TNF (Fig.S12e) / IL-6 (Fig.S12e) / IL-10 (Fig.S12e) / MCP-1 (Fig.S12e): unit not given here
[5] = tested on: E. coli; set-up: method as in PMID 30062115; conditions: cited from earlier work
[6] = 80 ppm TCS via diet vs vehicle, DSS-induced colitis, without GUSi
[7] = 1 mg/kg GUSi via oral gavage, 3- to 4-week treatment
[8] = cytokine level, individual mice, no DSS
[9] = gene expression, individual mice, no DSS

SMILES: O=C(O)C1OC(Oc2cc(Cl)ccc2Oc2ccc(Cl)cc2Cl)C(O)C(O)C1O (stereo not drawn) [TCS-G, triclosan-glucuronide]
- Rate [1]: 0.1092 µM/s and 0.1031 µM/s and 0.1177 µM/s
- Rate ([1]; GUS: Akkermansia muciniphila, Fig. 3a, replicates 1-3): 0.0108 µM/s and 0.0181 µM/s and 0.0194 µM/s
- Rate ([1]; GUS: Akkermansia sp. CAG:344, Fig. 3a, replicates 1-3): 0.0157 µM/s and 0.0151 µM/s and 0.0237 µM/s
- Rate ([1]; GUS: Bacteroides MSP (BMSP), Fig. 3a, replicates 1-3): 0.0000 µM/s and 0.0073 µM/s and 0.0072 µM/s
- Rate ([1]; GUS: Bacteroides coprocola CAG: 126, Fig. 3a, replicates 1-3): 0.0000 uM/s (2×) and 0.0056 uM/s
- Rate ([1]; GUS: Bacteroides dorei, Fig. 3a, replicates 1-3): 0.0000 µM/s
- Rate ([1]; GUS: Bacteroides fragillis (1, mini loop), Fig. 3a, replicates 1-3): 0.0000 uM/s (2×) and 0.0043 uM/s
- Rate ([1]; GUS: Bacteroides fragillis (2, No Loop), Fig. 3a, replicates 1-3): 0.0228 µM/s and 0.0242 µM/s and 0.0201 µM/s
- Rate ([1]; GUS: Bacteroides ovatus 1 (Double mini loop), Fig. 3a, replicates 1-3): 0.0000 µM/s and 0.0060 µM/s and 0.0033 µM/s
- Rate ([1]; GUS: Bacteroides ovatus 2 (loop 2), Fig. 3a, replicates 1-3): 0.0287 µM/s and 0.0311 µM/s and 0.0066 µM/s
- Rate ([1]; GUS: Bacteroides uniformis 1, Fig. 3a, replicates 1-3): 0.0000 µM/s
- Rate ([1]; GUS: Bacteroides uniformis 2, Fig. 3a, replicates 1-3): 0.0217 µM/s and 0.0464 µM/s and 0.0098 µM/s
- Rate ([1]; GUS: Bacteroides uniformis 3, Fig. 3a, replicates 1-3): 0.0000 µM/s
- Rate ([1]; GUS: Clostridiales sp., Fig. 3a, replicates 1-3): 0.2137 µM/s and 0.2298 µM/s and 0.2970 µM/s
- Rate ([1]; GUS: Escherichia coli, Fig. 3a, replicates 1-3): 0.0775 µM/s and 0.0865 µM/s and 0.0858 µM/s
- Rate ([1]; GUS: Eubacterium eligens, Fig. 3a, replicates 1-3): 0.1302 µM/s and 0.1403 µM/s and 0.1746 µM/s
- Rate ([1]; GUS: Eubacterium sp. CAG: 76, Fig. 3a, replicates 1-3): 0.2371 µM/s and 0.2156 µM/s and 0.2776 µM/s
- Rate ([1]; GUS: Faecalibacterium prausnitzii 2-L1, Fig. 3a, replicates 1-3): 0.4231 µM/s and 0.3684 µM/s and 0.3821 µM/s
- Rate ([1]; GUS: Faecalibacterium prausnitzii L2-6, Fig. 3a, replicates 1-3): 0.2237 µM/s and 0.2529 µM/s and 0.1639 µM/s
- Rate ([1]; GUS: Faecalibacterium prausnitzii, Fig. 3a, replicates 1-3): 0.1749 µM/s and 0.1228 µM/s and 0.2576 µM/s
- Rate ([1]; GUS: Fusicatenibacter saccharivorans, Fig. 3a, replicates 1-3): 0.0089 µM/s and 0.0000 µM/s and 0.0052 µM/s
- Rate ([1]; GUS: H11G11, Fig. 3a, replicates 1-3): 0.0684 µM/s and 0.0777 µM/s and 0.0864 µM/s
- Rate ([1]; GUS: Lactobacillus rhamnosus, Fig. 3a, replicates 1-3): 0.0323 µM/s and 0.1224 µM/s and 0.1254 µM/s
- Rate ([1]; GUS: Parabacteroides merdea, Fig. 3a, replicates 1-3): 0.0043 µM/s and 0.0011 µM/s and 0.0000 µM/s
- Rate ([1]; GUS: Roseburia hominis 2, Fig. 3a, replicates 1-3): 0.0519 µM/s and 0.0527 µM/s and 0.0448 µM/s
- Rate ([1]; GUS: Roseburia hominis 3, Fig. 3a, replicates 1-3): 0.4975 µM/s and 0.4668 µM/s and 0.4395 µM/s
- Rate ([1]; GUS: Roseburia hominis, Fig. 3a, replicates 1-3): 0.0330 µM/s and 0.0266 µM/s and 0.0438 µM/s
- Rate ([1]; GUS: Roseburia intestinalis, Fig. 3a, replicates 1-3): 0.0269 µM/s and 0.0251 µM/s and 0.0293 µM/s
- Rate ([1]; GUS: Roseburia inulinvorans, Fig. 3a, replicates 1-3): 0.1707 µM/s and 0.1889 µM/s and 0.1974 µM/s
- Rate ([1]; GUS: Ruminoccus gnavus 1, Fig. 3a, replicates 1-3): 0.0272 µM/s and 0.0287 µM/s and 0.0319 µM/s
- Rate ([1]; GUS: Ruminoccus gnavus 3, Fig. 3a, replicates 1-3): 0.1417 µM/s and 0.1517 µM/s and 0.1712 µM/s
- Rate ([1]; GUS: Streptococcus agalactiae, Fig. 3a, replicates 1-3): 0.0757 µM/s and 0.0745 µM/s and 0.0702 µM/s

SMILES: Oc1cc(Cl)ccc1Oc1ccc(Cl)cc1Cl [TCS, Triclosan]
- colon length [2, 6]: reduced
- colonic infiltration of immune cells (CD45+ leukocytes, CD45+ F4/80+ macrophages, CD45+ Gr1+ neutrophils) [2, 6]: enhanced
- crypt damage [2, 6]: more severe
- expression of pro-inflammatory genes (Tnf-a, Mcp-1, Il-6, Il-17, Il-23) in the colon [2, 6]: increased
- cd45+(%) [2]: 13.9% and 7.52% and 6.6% and 9.17% and 14.3% and 13.5% and 15.4%
- f4/80+ (%) [2]: 6.98% and 7.38% and 21.2% and 6.4% and 16.3% and 14.9% and 17.1%
- gr-1+ (%) [2]: 6.98% and 5.74% and 9.62% and 14.5% and 6.12% and 11.4% and 10%
- Il-6 [2]: 2.766 and 2.25 and 1.456 and 1.055 and 1.808 and 1.047
- Il-17 [2]: 3.654 and 3.3461 and 1.6638 and 1.675 and 2.194 and 1.456 and 1.44 and 2.099
- Il-23 [2]: 1.246 and 3.908 and 1.924 and 1.869 and 2.972 and 1.28 and 1.3835 and 2.162
- Mcp1 [2]: 1.522 and 3.593 and 1.038 and 1.619 and 1.9672 and 1.4511
- Tnf-α [2]: 18.081 and 1.569 and 15.9712 and 7.287 and 5.139 and 4.495 and 3.411
- HE [2]: 5 and 10 and 8 and 7 and 9
- colon length (cm) [2]: 5.8 cm and 7.1 cm and 7 cm and 6.3 cm and 6.4 cm and 5.3 cm
- TCS formed [3]: 17.00 pmol and 16.49 pmol and 18.41 pmol

SMILES: C1CCc2c(c(N3CCOCC3)nc3sc4c(N5CCNCC5)nnnc4c23)C1 [GUSi, UNC10201652]
- colitis-enhancing effects of TCS with co-administration of GUSi ([2]; 1 mg/kg GUSi via oral gavage, 80 ppm TCS via diet, DSS-induced colitis, all measures): eliminated
- cd45+(%) [2]: 3.37% and 1.44% and 2.8% and 3.35% and 3.49% and 6.62% and 4.63% and 3.22%
- f4/80+ (%) [2]: 5.88% and 5.56% and 2.33% and 7.14% and 0% and 1.72%
- gr-1+ (%) [2]: 0% and 2.94% and 5.56% and 1.43% and 2.13%
- Il-6 [2]: 0.5774 and 0.763 and 0.8366 and 0.5822 and 0.577 and 0.6095
- Il-17 [2]: 0.5948 and 0.2298 and 0.792 and 0.6818 and 0.4596 and 0.7005
- Il-23 [2]: 0.7347 and 0.9268 and 1.245 and 0.9397 and 0.6326 and 1.199
- Mcp1 [2]: 0.841 and 0.7995 and 1.048 and 0.7621 and 1.517 and 1.4734 and 0.8163
- Tnf-α [2]: 1.652 and 0.2802 and 0.2939 and 0.2088 and 0.6209 and 0.7192
- HE [2]: 4 and 3 and 6
- colon length (cm) [2]: 6.9 cm and 7.5 cm and 7.1 cm and 7.2 cm and 6.7 cm
- effect on body weight [4, 7]: little effects
- effect on colon histology [4, 7]: little effects
- effect on colon length [4, 7]: little effects
- effect on colonic or systematic inflammation [4, 7]: little effects
- IFN (Fig.S12e) [4, 8]: 0
- IL-6 (Fig.S12e) [4, 8]: 13.43 and 0 and 6.45
- IL-10 (Fig.S12e) [4, 8]: 37.4 and 0 and 198.61 and 44.6 and 23.86
- IL-12P70 (Fig.S12e) [4, 8]: 25.71 and 0 and 88.12
- MCP-1 (Fig.S12e) [4, 8]: 48.03 and 146.49 and 57.21 and 61.62 and 184.9 and 179.76 and 331.3 and 143.93
- TNF (Fig.S12e) [4, 8]: 60.3 and 20.04 and 10.87 and 8.58 and 0 and 48.52 and 31.51 and 26.47
- ifn (Fig.S12d) [4, 9]: 0.5314 and 0.5552 and 0.6727 and 2.025 and 1.546 and 2.975 and 0.7505 and 0.9593
- il6 (Fig.S12d) [4, 9]: 0.9822 and 0.6373 and 0.485 and 1.527 and 0.9215 and 0.6364 and 1.1212 and 1.239
- il17 (Fig.S12d) [4, 9]: 1.45 and 0.9375 and 0.5532 and 1.296 and 0.6529 and 0.514 and 0.9732 and 1.7301
- il-1b (Fig.S12d) [4, 9]: 1.675 and 3.673 and 1.563 and 0.709 and 1.249 and 2.221 and 3.587 and 1.198
- il-10 (Fig.S12d) [4, 9]: 1.7121 and 1.046 and 0.8638 and 1.378 and 1.892 and 1.921 and 0.8229 and 0.4425
- il-23 (Fig.S12d) [4, 9]: 1.384 and 0.7725 and 0.7614 and 1.398 and 2.3746 and 0.7478 and 0.414 and 0.4606
- mcp1 (Fig.S12d) [4, 9]: 1.246 and 0.6949 and 0.7972 and 1.205 and 1.387 and 0.8717 and 0.5743 and 0.5267
- tlr-4 (Fig.S12d) [4, 9]: 1.193 and 1.155 and 1.078 and 1.23 and 1.258 and 1.02 and 0.5994 and 0.6478
- tnf (Fig.S12d) [4, 9]: 0.9505 and 1.516 and 0.4248 and 0.7567 and 1.942 and 2.3131 and 2.563 and 2.05
- effect on growth of E. coli [5]: no effect
